The nature of the data set: Human HepG2 cell viability assay in 384 well format. The class given is toxicity, cell-based. Also noted: dose 125 nL, time 70.5 hour; concentration not given beside the values. The following applies: HepG2 cells, read-out: Inhibition.

Regarding `CC1CN(c2ncnc3ccccc23)CCO1` (centres undefined), the cytotoxicity at 70.5 h was 10%.

Regarding `Cc1ccc(CN2CCOC(C)(c3cnn(C)c3)C2)cc1` (centres undefined), the cytotoxicity at 70.5 h was -2.83%.

For `CCOCCS(=O)(=O)Cc1ccn(-c2cccc(F)c2)n1`, the cytotoxicity at 70.5 h was -10.1%.

Turning to `CCOC(=O)C1CCN(C(=O)CN2CCCC2c2ccsc2)CC1` (centres undefined), the cytotoxicity at 70.5 h is -3.85%.

As for `COCCn1cc(C(=O)N2CCCC2c2cc(C)on2)c2ccccc21` (centres undefined), the cytotoxicity at 70.5 h worked out at 1.11%.

Take `O=C(Nc1ccccc1)C1CCN(C(=O)COc2ccccc2F)CC1`: the cytotoxicity at 70.5 h stood at 7.69%.

With `O=C(NCC(O)c1ccc(F)cc1F)c1cccc(F)c1` (centres undefined), the cytotoxicity at 70.5 h is -2.46%.

On to `Cc1nc(NC(=O)C(C)N2CCN(c3ncccn3)CC2)sc1C` (centres undefined), for which the cytotoxicity at 70.5 h was -8.18%.

As to `O=C(NCCNc1cnccn1)N1CC=C(c2ccccc2)CC1`, the cytotoxicity at 70.5 h was -8.49%.

Turning to `COc1c(C)cnc(CNC(=O)c2cnc3onc(C)c3c2)c1C`, the cytotoxicity at 70.5 h is 12.5%.

As to `CN(C)CCOc1ccc(CNC(=O)c2cccc3[nH]ncc23)cc1`, the cytotoxicity at 70.5 h is 9.57%.

Take `Cc1noc(C)c1CCC(=O)N1CCCC(n2ccnc2C)C1` (centres undefined): the cytotoxicity at 70.5 h came out at 3.81%.

In the case of `CC(C)Nc1cccc(C(=O)NCC(O)c2ccc(F)cc2F)c1` (centres undefined), the cytotoxicity at 70.5 h was -1.19%.

On to `O=C(NCC1CCN(CCc2ccccc2)C1)c1c(F)cccc1F` (centres undefined), for which the cytotoxicity at 70.5 h was 14.6%.

Consider `CC(C)c1nc(C2CCCN(c3nccc(C(F)(F)F)n3)C2)no1` (centres undefined), for which the cytotoxicity at 70.5 h is -2.52%.

For `COC(=O)c1ccc(Cl)c(NS(=O)(=O)c2cn(C)cn2)c1`, the cytotoxicity at 70.5 h is 9.09%.

On to `CC(=O)NCc1ccc(C(=O)N2CCCC(n3cncn3)C2)o1` (centres undefined), for which the cytotoxicity at 70.5 h was 20.5%.

For `CCCc1n[nH]c(C2CN(C(=O)CCCn3ccnc3C)CCO2)n1` (centres undefined), the cytotoxicity at 70.5 h stood at 4.08%.

In the case of `CC(C)c1cnc(CN(C)C2CCN(CCc3ccccn3)C2)o1` (centres undefined), the cytotoxicity at 70.5 h was determined as 13.1%.

As for `CCNC(=O)CN1CCN(c2ccnc3c(F)ccc(F)c23)CC1`, the cytotoxicity at 70.5 h is -7.66%.

Turning to `O=C(CN1CCN(c2ccnc3c(F)ccc(F)c23)CC1)NC1CC1`, the cytotoxicity at 70.5 h was 0.111%.

Take `NC(=O)c1cnc(NC2CCN(c3ccccc3)CC2)c(Cl)c1`: the cytotoxicity at 70.5 h is -1.28%.

With `O=C(c1csc(-c2ncccn2)n1)N1CCN(C2CCCC2)CC1`, the cytotoxicity at 70.5 h was -5.27%.

On to `O=C(c1csc(-c2cccs2)n1)N1CCN2CCCCC2C1` (centres undefined), for which the cytotoxicity at 70.5 h is -2.54%.

Take `COCCOCCC(=O)Nc1c(-c2ccc(F)cc2)ncn1C`: the cytotoxicity at 70.5 h was 17%.

As for `COc1ccc(-c2cnc(CN3CCCC3Cn3cncn3)o2)cc1` (centres undefined), the cytotoxicity at 70.5 h is -6.4%.

With `CC(C)CC(=O)Nc1c(-c2ccc(F)cc2)ncn1C`, the cytotoxicity at 70.5 h was 9.48%.

For the compound `CC(C)OCCC(=O)Nc1c(-c2ccc(F)cc2)ncn1C`, the cytotoxicity at 70.5 h worked out at 2.71%.

As for `Cc1[nH]c(=O)sc1S(=O)(=O)N1CCCC1C(=O)NCc1ccsc1` (centres undefined), the cytotoxicity at 70.5 h was -4.24%.

Turning to `COc1ncc(C)cc1NC(=O)COc1ccccc1F`, the cytotoxicity at 70.5 h was determined as 11.7%.

Turning to `COCc1csc(NC(=O)NCc2ccsc2)n1`, the cytotoxicity at 70.5 h is -4.84%.

Consider `Cc1nsc(NCCNS(=O)(=O)c2cccc(Cl)c2)n1`, for which the cytotoxicity at 70.5 h stood at 9.23%.

As for `Cc1c(NCC(C)(C)C)cccc1C(=O)NCc1ncnn1C`, the cytotoxicity at 70.5 h worked out at 14.6%.

As to `COc1cccc(OCC(=O)Nc2cc(C)cnc2OC)c1`, the cytotoxicity at 70.5 h stood at 2.85%.

In the case of `O=C(c1csc(-c2ncccn2)n1)N1CCN2CCCCC2C1` (centres undefined), the cytotoxicity at 70.5 h is -5.52%.

Turning to `CC(CNS(C)(=O)=O)c1ccc(F)c(F)c1` (centres undefined), the cytotoxicity at 70.5 h was -1.08%.

Take `CN(CCNc1cc(N2CCCC2CO)ncn1)Cc1ccccc1` (centres undefined): the cytotoxicity at 70.5 h is -3.62%.

On to `c1cncc(CN(Cc2ccc(-n3ccnc3)cc2)CC2CCCO2)c1` (centres undefined), for which the cytotoxicity at 70.5 h was 13.2%.

Turning to `CS(=O)(=O)NC1CCN(c2cccc(F)c2C#N)CC1`, the cytotoxicity at 70.5 h is -16.5%.

As to `O=C(COC1CCCC1)NCCCn1nc2ccccn2c1=O`, the cytotoxicity at 70.5 h was -16.2%.

`O=C(NCC1CC1)C1CSCN1S(=O)(=O)c1ccccc1F` (centres undefined): the cytotoxicity at 70.5 h came to 4.99%.

With `N#Cc1ccc(N2CCC(NS(=O)(=O)c3cccs3)CC2)c(F)c1`, the cytotoxicity at 70.5 h is -9.83%.

In the case of `Cc1cccc(S(=O)(=O)N2CSCC2C(=O)NCC2CC2)c1` (centres undefined), the cytotoxicity at 70.5 h is -2.32%.

Regarding `Cc1nc(C)n(CC2CCCN2CC(=O)NCCc2cccs2)n1` (centres undefined), the cytotoxicity at 70.5 h is -15.5%.

On to `Cc1cc(N2CCC(N(C)C(=O)c3sccc3C)CC2)nc(C)n1`, for which the cytotoxicity at 70.5 h was -4.75%.

As for `O=C(CCc1ccc(Cl)s1)N1CCCC(N2CCNC2=O)C1` (centres undefined), the cytotoxicity at 70.5 h is -17.9%.

In the case of `Cc1cc(C)n(CC2CCCCN2C(=O)c2ccc3[nH]nnc3c2)n1` (centres undefined), the cytotoxicity at 70.5 h is -17.7%.

For the compound `Cc1cnn(CC2CCCN2C(=O)c2ccc3c(c2)nnn3C)c1` (centres undefined), the cytotoxicity at 70.5 h was -6.19%.

In the case of `CSCC(CCO)NC(=O)Nc1cccc(Br)c1C` (centres undefined), the cytotoxicity at 70.5 h is -21.2%.

Turning to `O=C(NCCCn1nc2ccccn2c1=O)NCCC1CCC1`, the cytotoxicity at 70.5 h was -3.21%.

With `Cc1csc(N2CCN(Cc3cccnc3)CC2C)n1` (centres undefined), the cytotoxicity at 70.5 h was -19.6%.

`CC(=O)NCCNC(=O)CN1CCCC1Cn1nc(C)nc1C` (centres undefined): the cytotoxicity at 70.5 h is -16.9%.

In the case of `Cc1csc(N2CCN(Cc3cscn3)CC2C)n1` (centres undefined), the cytotoxicity at 70.5 h was -4.06%.

Turning to `CCC(CC)NC(=O)NCc1ccnc(-n2ccnc2C)c1`, the cytotoxicity at 70.5 h was -2.5%.

Take `CS(=O)(=O)NCC1CCCN(C(=O)c2ccc3c(c2)CCCC3)C1` (centres undefined): the cytotoxicity at 70.5 h amounted to 5.26%.

Take `CC(C)S(=O)(=O)NCC1CCCN(C(=O)c2ccc(F)cc2)C1` (centres undefined): the cytotoxicity at 70.5 h was found to be 9.08%.

On to `Cc1nccn1-c1cc(CNC(=O)C2CCC(=O)N2)ccn1` (centres undefined), for which the cytotoxicity at 70.5 h is -6.29%.

Take `OCCN1CCC(CNCc2ccc(Br)cc2)CC1`: the cytotoxicity at 70.5 h was -1.11%.

Consider `CC(Oc1ccccc1C(F)(F)F)C(=O)NCCCC(N)=O` (centres undefined), for which the cytotoxicity at 70.5 h is 11.1%.

With `COc1c(C2CCCN2C(=O)c2ccco2)c(C)nn1C` (centres undefined), the cytotoxicity at 70.5 h was determined as 8.77%.

In the case of `COc1c(C2CCCN2C(=O)c2cc(C3CC3)on2)c(C)nn1C` (centres undefined), the cytotoxicity at 70.5 h is -5.95%.

With `Cc1ccc(NC(=O)c2ccc(CC3CC(=O)NC3=O)cc2)cc1O` (centres undefined), the cytotoxicity at 70.5 h is -2.83%.

With `CC1CN(C)c2ccccc2CN1C(=O)c1cnsn1` (centres undefined), the cytotoxicity at 70.5 h is -0.187%.

On to `CC1CN(C)c2ccccc2CN1C(=O)c1cscn1` (centres undefined), for which the cytotoxicity at 70.5 h was -5.75%.

As to `O=C(c1cncc(Br)c1)N1CCCc2c(F)cc(F)cc21`, the cytotoxicity at 70.5 h was -3%.

Consider `Cc1ccc2c(c1)CCCN2C(=O)c1cncc(Br)c1`, for which the cytotoxicity at 70.5 h came to 20.3%.

As for `Cc1cc(F)c2c(c1)CCCN2C(=O)c1cncc(Br)c1`, the cytotoxicity at 70.5 h was found to be 0.703%.

Turning to `O=C(CN(Cc1ccco1)C1CC1)Nc1ccc(Br)cn1`, the cytotoxicity at 70.5 h was -17.6%.

For `Cc1cc(C(C)NC(=O)CCn2nnc3ccccc3c2=O)c(C)o1` (centres undefined), the cytotoxicity at 70.5 h was -5.41%.

As to `COCc1cccc(C(=O)N(C)Cc2ncc(C)c(OC)c2C)c1`, the cytotoxicity at 70.5 h is -8.49%.

Turning to `O=C1C(NCc2cccc(O)c2)CCN1Cc1ccccc1` (centres undefined), the cytotoxicity at 70.5 h is -0.773%.

In the case of `CCOCC(=O)NC(C#N)c1cnn(-c2ccccc2)c1` (centres undefined), the cytotoxicity at 70.5 h was -9.95%.

As for `COc1cccc(CCCn2cnnc2[S+](C)[O-])c1` (centres undefined), the cytotoxicity at 70.5 h was -7.37%.

In the case of `CS(=O)(=O)c1nccn1Cc1ccc(C(N)=O)cc1`, the cytotoxicity at 70.5 h was -4.15%.
